Source: publication PMC4780082, “Evidence for Tautomerisation of Glutamine in BLUF Blue Light Receptors by Vibrational Spectroscopy and Computational Chemistry” (Scientific Reports, 2016)

Molecular target: T1, BlrB (Cereibacter sphaeroides, UniProt Q3IYE4)
T1 construct: full-length short BLUF protein, residues 1-140, pET28a(+), His-tag removed by thrombin, E. coli BL21(DE3) glnA knockout; unlabelled and 15N-Gln samples
Test: light-induced FTIR difference spectroscopy of the reconstituted holoprotein
Format: binding
Settings: FAD added for full reconstitution; flavin C4=O band of bound chromophore; pH 8.0; 20 °C

T1 sequence (Q3IYE4 entry or part of it): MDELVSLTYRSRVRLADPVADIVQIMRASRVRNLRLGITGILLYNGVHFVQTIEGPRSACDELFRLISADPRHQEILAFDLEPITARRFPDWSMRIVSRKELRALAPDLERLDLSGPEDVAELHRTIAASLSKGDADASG

**Q.** `Cc1cc2nc3c(=O)[nH]c(=O)nc-3n(C[C@H](O)[C@H](O)[C@H](O)COP(=O)(O)OP(=O)(O)OC[C@H]3O[C@@H](n4cnc5c(N)ncnc54)[C@H](O)[C@@H]3O)c2cc1C` [flavin adenine dinucleotide] was tested. Which “light-induced FTIR difference spectroscopy of the reconstituted holoprotein” value did it give?
**A.** includes strong contributions from the C4=O stretch of flavin with an amide I band
